Source: PubChem BioAssay (NCI)
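Assay format: 96-well plates, 48-hour exposure. Abbreviation: GI50, concentration required for 50% inhibition of growth. The concentration for full growth arrest is given as TGI.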

How the values were obtained:
Test in all cases: NCI anticancer screen, dose series, 48 h
CCRF-CEM leukemia = tested on: CCRF-CEM leukemia
DU-145 prostate = tested on: DU-145 prostate
K-562 leukemia = tested on: K-562 leukemia
M14 melanoma = tested on: M14 melanoma
MALME-3M melanoma = tested on: MALME-3M melanoma
NCI/ADR-RES ovarian = tested on: NCI/ADR-RES ovarian
OVCAR-5 ovarian = tested on: OVCAR-5 ovarian
PC-3 prostate = tested on: PC-3 prostate
RXF 393 renal = tested on: RXF 393 renal
T-47D breast = tested on: T-47D breast

Row | SMILES | TGI (CCRF-CEM leukemia) [µM] | TGI (DU-145 prostate) [µM] | TGI (K-562 leukemia) [µM] | TGI (M14 melanoma) [µM] | TGI (MALME-3M melanoma) [µM] | TGI (NCI/ADR-RES ovarian) [µM] | TGI (OVCAR-5 ovarian) [µM] | TGI (PC-3 prostate) [µM] | TGI (RXF 393 renal) [µM] | TGI (T-47D breast) [µM] | GI50 (CCRF-CEM leukemia) [µM] | GI50 (DU-145 prostate) [µM] | GI50 (K-562 leukemia) [µM] | GI50 (M14 melanoma) [µM] | GI50 (MALME-3M melanoma) [µM] | GI50 (NCI/ADR-RES ovarian) [µM] | GI50 (OVCAR-5 ovarian) [µM] | GI50 (PC-3 prostate) [µM] | GI50 (RXF 393 renal) [µM] | GI50 (T-47D breast) [µM]
1 | O=NN(Cc1ccc(Cl)cc1)C(C(=O)O)c1ccccc1 (stereo not given) | > 100 | > 100 | > 100 | > 100 | > 100 | > 100 | > 100 | > 100 | > 100 | > 100 | – | – | – | – | – | – | – | – | – | –
2 | CCOC(=O)CCc1cc(=O)oc2cc(O)cc(O)c12 | > 100 | > 100 | > 100 | > 100 | > 100 | > 100 | > 100 | > 100 | > 100 | > 100 | – | – | – | – | – | – | – | – | – | –
3 | C[C@]12CC[C@H](O)CC1=CC[C@@H]1[C@@H]2CC[C@]2(C)C(c3cccnc3)=CC[C@@H]12 | > 100 | > 100 | > 100 | > 100 | > 100 | > 100 | > 100 | > 100 | 19 | > 100 | > 96.6 | > 100 | 3.99 | > 100 | 54.3 | 38.4 | > 100 | > 100 | 3.32 | > 100
4 | NCC(=O)NS(=O)(=O)OC[C@H]1O[C@@H](n2cnc3c(N)ncnc32)[C@H](O)[C@@H]1O | > 100 | 5.61 | 11.8 | 3.61 | 3.87 | 9.67 | 4.1 | 6.47 | 4.2 | 9.21 | 3.71 | 0.699 | 3.71 | 1.81 | 1.92 | 2.53 | 0.75 | 2.66 | 2.11 | 2.32
5 | CCCCC/C(C=C(C#N)C#N)=C/c1ccccc1 | 6.96 | 24.6 | 35.3 | 7.29 | 16.5 | 6.46 | 10.7 | 12.2 | 22.3 | 26.1 | 2.51 | 5.23 | 3.8 | 2.45 | 3.11 | 2.48 | 4.11 | 3.13 | 5.82 | 4.93
6 | N#Cc1ccc(C#Cc2ccccc2C#CCCCCO)cc1 | 29.1 | 29.8 | 46.1 | 31.5 | 38.7 | 36.9 | 28.4 | 28.9 | 24.4 | 28 | 14.8 | 16 | 21.7 | 17.3 | 21 | 17.7 | 15.1 | 15.6 | 7.05 | 13
7 | Cc1c(C(=O)N/N=C/c2ccc(Cl)cc2)nnn1-c1ccnc2c(C(F)(F)F)cccc12 | > 100 | 20.5 | 42.2 | 18.9 | 4.4 | 13.8 | 36.9 | 11.3 | 11.2 | 28.9 | 14.8 | 4.89 | 5.74 | 4.45 | 1.53 | 3.86 | 15.6 | 3.04 | 3.06 | 7.59
8 | O=C1CNCCCN2CCN(CCCNCC(=O)Nc3ccc(cc3)S(=O)(=O)c3ccc(cc3)NC(=O)CNCCCN3CCN(CCCNCC(=O)Nc4ccc(cc4)S(=O)(=O)c4ccc(cc4)N1)CC3)CC2 | > 100 | > 100 | > 58.5 | > 100 | 24.2 | > 100 | > 77.2 | > 100 | > 70.2 | 97.2 | – | – | – | – | – | – | – | – | – | –
9 | CC1CCC2(C(=O)O)CCC3(C)C(=CCC4C5(C)CC(O)C(O)C(C)(CO)C5C(O)CC43C)C2C1C (stereo not given) | 53.3 | > 100 | > 100 | > 100 | > 100 | > 100 | > 100 | > 100 | > 64.1 | > 84.7 | – | – | – | – | – | – | – | – | – | –
10 | CCNCCNc1cc(-c2ccc(C(=O)OC)cc2)c(C#N)c2nc3ccccc3n12 | 3.55 | > 100 | 3.2 | 3.23 | 3.69 | > 100 | > 100 | > 100 | 2.85 | 5.31 | 0.505 | 2.65 | 1.23 | 1.58 | 1.95 | 2.8 | 3.08 | 5.28 | 1.42 | 2.16
11 | CCCCC(=O)OCC1OC(n2cnc3c(=S)nc[nH]c32)C(OC(=O)CCCC)C1OC(=O)CCCC (stereo not given) | > 100 | > 100 | > 100 | 10.7 | > 100 | > 100 | > 100 | > 100 | > 100 | > 59 | 3.25 | 0.636 | 2.03 | 0.779 | > 22.1 | 3.51 | 3.65 | 2.21 | > 71.4 | 1.17
12 | COc1cccc(/C=N/NC(=O)c2ccccc2Nc2ccnc(C(F)(F)F)c2)c1O | 2.02 | > 47 | 12.3 | > 23.2 | 33.6 | 27.9 | 98.3 | > 33.1 | 28 | 38.8 | 0.115 | 0.543 | 0.369 | 0.375 | 0.964 | 0.512 | 0.701 | 1.47 | 0.728 | 0.498
13 | O=C(O)CCCCC(CCSCc1ccccc1)SCc1ccccc1 (stereo not given) | > 100 | > 100 | > 100 | > 100 | > 100 | > 100 | > 100 | > 100 | > 100 | > 100 | 37 | > 71.2 | 44.5 | 55.4 | 87.7 | 48.6 | > 100 | 49.1 | 27.3 | 44
14 | COc1cnc2cc(C(=O)O)c3c([N+](=O)[O-])cccc3c2c1 | > 100 | > 100 | > 100 | > 100 | > 100 | > 100 | > 100 | > 100 | > 100 | > 100 | – | – | – | – | – | – | – | – | – | –
